Molecules are shown by their SMILES. Converted amounts (≈) assume the structure as drawn. Counter-ions that a name gives are not always drawn. Like-named read-outs stand apart in the source and are kept apart here.

For assay [1], the system named is Biolaser Thrombosis. Nature of the assay: In Vivo Animal Model: Rabbit Biolaser Thrombosis. The following applies: Oryctolagus cuniculus, read-out: ED50, Rabbit Biolaser Thrombosis.
The subject of assay [2] is Rabbit - PRP (ADP- and collagen-induced platelet aggregation). Nature of the assay: Aggregometry - Rabbit - PRP, Ex Vivo. Format: in vivo. To be noted: Oryctolagus cuniculus, ip. The source says:
(§1) As stated above, the compound of Formula I is a known blood platelet antiaggregative agent. Table I compares the activities of the compound of Formula I and other known blood platelet antiaggregative agents in various antiaggregative and antithrombosis tests. Although the compounds of Formula III are primarily intended as intermediates in the preparation of the compound of Formula I, they themselves have blood platelet antiaggregative properties. For comparison purposes, one of the compounds of Formula III (R^1 = ethyl, X = bromo) is included in Table I. The tests referred to in Table I were conducted as set out in detail in J. S. Fleming, et al., Journal of Pharmacology and Experimental Therapeutics, 194, 435 (1975).
(§2) Antiaggregative and Antithrombosis Tests in Various In Vitro, Ex Vivo
(§3) Aggregometry - Rabbit - PRP
(§4) (μg/ml) (mg/kp ip) Biolaser
(§5) PRP = Platelet-rich plasma
(§6) ADP = Adenosine diphosphate

For assay [3] the test system is unchanged. Nature of the assay: Aggregometry - Rabbit - PRP, In Vitro. Format: cell-based. The following applies: Oryctolagus cuniculus.
Description: as §1, §2, §3, §4, §5, §6

The test system of assay [4] is Electrical Thrombosis. Briefly: In Vivo Animal Model: Dog Electrical Thrombosis. The following applies: Canis lupus familiaris, read-out: ED50, Dog Electrical Thrombosis.
For assay [5], the system named is Endotoxin Shock. Briefly: In Vivo Animal Model: Rat Endotoxin Shock. To be noted: po.
Description: as §1
In Vivo Animal Models ED50's (mg/kg)

Setting [6] is: ADP, read-out: Ex Vivo ED50, ADP.
Setting [7] is: Collagen, read-out: Ex Vivo ED50, Collagen.
Setting [8] is: ADP, read-out: In Vitro EC50, ADP.
Setting [9] is: Collagen, read-out: In Vitro EC50, Collagen.

Turning to `CC(=O)Oc1ccccc1C(=O)O` [Aspirin], the ED50 (as a rule, the dose that gives a 50% effect, or the effect in half of the subjects) in assay [1] (iv) was greater than 60 mg/kg; in assay [2] (setting [6]), greater than 100 mg/kg; in assay [2] (setting [7]), 3 mg/kg; in assay [4] (po), 50 mg/kg; in assay [5], greater than 256 mg/kg. For the same molecule, the EC50 (usually the midpoint of the concentration-response curve) is greater than 512 µg/mL in assay [3] (setting [8]) and 7 µg/mL (≈ 38.9 µM) in assay [3] (setting [9]).

`O=C1CN2Cc3c(ccc(Cl)c3Cl)N=C2N1` [Compound I, 6,7-dichloro-1,5-dihydroimidazo[2,1-b]quinazolin-2(3H)-one]: the ED50 stood at 2.5 mg/kg in assay [1] (rabbit, po); 1.25 mg/kg in assay [2] (setting [6]); 1 mg/kg in assay [2] (setting [7]); 1.5 mg/kg in assay [4] (dog, po); 25 mg/kg in assay [5]. Besides, the EC50 in assay [3] (setting [8]) amounted to 0.3 µg/mL (≈ 1.17 µM); in assay [3] (setting [9]), 0.08 µg/mL (≈ 0.312 µM).

Regarding `CCOC(=O)CN1Cc2c(ccc(Cl)c2Cl)NC1=N` [Compound III, Ethyl 5,6-Dichloro-3,4-dihydro-2(1H)-iminoquinazoline-3-acetate Hydrobromide], the EC50 was 9 µg/mL in assay [3] (setting [8]) and 3.6 µg/mL in assay [3] (setting [9]).

For `OCCN(CCO)c1nc(N2CCCCC2)c2nc(N(CCO)CCO)nc(N3CCCCC3)c2n1` [Dipyridamole], the ED50 in assay [1] (rabbit, iv) was greater than 60 mg/kg; in assay [2] (setting [6]), greater than 100 mg/kg; in assay [2] (setting [7]) it was greater than 100 mg/kg; in assay [4] (dog, ip), greater than 35 mg/kg; in assay [5] it was greater than 256 mg/kg. Further, the EC50 in assay [3] (setting [8]) is greater than 512 µg/mL.

As for `O=C1C(CC[S+]([O-])c2ccccc2)C(=O)N(c2ccccc2)N1c1ccccc1` (centres unmarked) [Sulfinpyrazone], the ED50 in assay [1] (rabbit, iv) is greater than 60 mg/kg; in assay [2] (setting [6]) it was greater than 100 mg/kg; in assay [2] (setting [7]), 3 mg/kg; in assay [4] (dog, po) it was greater than 100 mg/kg; in assay [5], greater than 128 mg/kg. The EC50 in assay [3] (setting [8]) was greater than 512 µg/mL; in assay [3] (setting [9]), 62 µg/mL (≈ 153 µM).

The record behind these values is patent US4146718A, “Alkyl 5,6-dichloro-3,4-dihydro-2(1H)-iminoquinazoline-3-acetate hydrohalides” (Bristol-Myers Company, priority 1978, dated 1979).
